US6495589B2, “Somatostatin antagonists and agonists that act at the SST subtype 2 receptor” (Pfizer Inc., priority 2000, dated 2002)
Ends that are not written are not given here.

System: GH4C1 cells
Assay: Rat pituitary assay for somatostatin receptor antagonists (cAMP content of GH4C1 cells)
Format: cell-based
Conditions: 100 nM VIP as stimulus
Description: This assay is designed to quantitate the activity of antagonists of somatostatin that interact directly at the somatostatin receptor. The assay facilitates discovery of agents which increase growth hormone secretion by modulating the inhibitory effects of somatostatin. As aforementioned, somatostatin (also abbreviated SRIF) inhibits GH secretion in the anterior pituitary by binding to a high affinity membrane-bound (and G-protein coupled) receptor which is coupled negatively to adenyl cyclase, thereby reducing intracellular levels of cAMP that would otherwise facilitate, for example, secretion/release of GH from cytoplasmic granules. […] The screen is designed to quantitate the ability of test agents to reverse SRIF's inhibition of the elevated intracellular cAMP levels produced by VIP.
In particular, cyclic AMP (cAMP) content of the pituitary cell line GH4C1 was used to differentiate somatostatin agonists from antagonists. […] This afforded a convenient way to conduct a homogenous immunoradiometric assay of cAMP content in cells lysed in situ, following incubation of the cells with test compound. cAMP content in the GH4C1 cells was determined according to the manufacturer's instructions, by comparison with standards at concentrations from 10 to 1,000 nM cAMP. […]
IC50 values are determined by polynomial regression and analzyed using a MACRO program. […]

VIP: Vasoactive intestinal peptide (Sigma V3628), endogenous peptide that stimulates GH secretion and activates adenylate cyclase (HSDAVFTDNYTRLRKQMAVKKYLNSILN-NH2; ends and bridges not checked; UniProt P01282 125-152, looked up)
cAMP content of the GH4C1 cells: increased
